Measured values from patent publication US20230364254A1, “METHODS FOR TREATING CANCERS WITH ANTIBODY DRUG CONJUGATES (ADC) THAT BIND TO 191P4D12 PROTEINS” (priority 2020, published 2023).

Experiments:
[1] = test system: patients treated with enfortumab vedotin; experiment: Phase 1 study ASG-22CE-13-2 of enfortumab vedotin: dermatologic and corneal adverse events; format: in vivo, human
From the text: In the phase 1 study (Study ASG-22CE-13-2), rash and similar dermatologic AEs were common among patients treated with enfortumab vedotin, and were seen more frequently at the highest dose. Although the exact etiology of dermatologic toxicities associated with enfortumab vedotin is unclear at this time, due to the expression of Nectin-4 in the skin, rash may be an on-target toxicity. The most common dermatological AEs reported in ASG-22CE-13-2 were drug eruption, rash, skin exfoliation, skin pigmentation disorder, and rash maculo-papular. Most occurred during Cycle 1, and some were associated with pruritus. Almost all were mild, with the exception of two events of rash reported as Grade 3 in the 1 mg/kg dose group. […] Mild rash related to enfortumab vedotin should be treated using local supportive care as needed. Topical corticosteroids have been used along with antihistamines for pruritus as needed.
Slit lamp examinations will be conducted on at least the first 60 enrolled patients (from Cohorts 1 and/or 2) on Cycle 2 Day 22 (±1 week) and Cycle 6 Day 22 (±1 week). If corneal AEs are observed in <15% of the first 60 enrolled patients and if the events are generally low grade or asymptomatic, the IDMC may make a recommendation to cease Cycle 2 Day 22 and/or Cycle 6 Day 22 slit lamp exams for the remaining patients if warranted based on review of the cumulative ocular safety data. Based on the results from the Phase 1 study (Study ASG-22CE-13-2), as of the data cut-off date of 14 Nov. 2016, there were 3 patients who reported experiencing corneal adverse events out of 33 patients on […] of enfortumab vedotin. Assuming an event rate of 9% (3/33), with a sample size of 60, the probability of observing >3 events (5%) is 80.0% and the probability of observing <9 events (15%) is 91.2%. If the event rate is higher, the probability of observing <9 events is decreased. For example, if the event rate is 20%, the probability of observing <9 events is decreased to 12.7%. Based on the analysis described above and the review of cumulative ocular safety data, the IDMC recommended that the Cycle 2 Day 22 and Cycle 6 Day 22 slit lamp exams be discontinued in July 2018 and August 2019, respectively.

[2] = test system: locally advanced or metastatic urothelial cancer; experiment: Phase 2 single-arm, open-label study of enfortumab vedotin 1.25 mg/kg IV on Days 1, 8, 15 of each 28-day cycle: efficacy (confirmed ORR, DOR, PFS per RECIST 1.1 by BICR; OS); format: in vivo, human; conditions: for ORR point estimates for all subgroups: ORR subgroup analysis
From the text: This is a single-arm, open-label, multicenter trial designed to assess the efficacy and safety of enfortumab vedotin as a single agent in locally advanced or metastatic urothelial cancer patients who have previously received systemic therapy with a CPI. For the purpose of this study a CPI is defined as a programmed cell death protein 1 (PD-1) inhibitor or programmed death-ligand 1 (PD-L1) inhibitor (including, but not limited to: atezolizumab, pembrolizumab, durvalumab, avelumab, and nivolumab). Patients must either have received prior treatment with platinum-containing chemotherapy (Cohort 1) or received no prior treatment with platinum-containing or other chemotherapy and are ineligible for treatment with cisplatin at time of enrollment (Cohort 2).
Enfortumab vedotin at a dose of 1.25 mg/kg will be administered as an intravenous (IV) infusion over approximately 30 minutes on Days 1, 8, and 15 of each 28-day cycle. Patients will continue to receive study treatment until disease progression, unacceptable toxicity, investigator decision, consent withdrawal, start of a subsequent anticancer therapy, pregnancy, or study termination by the sponsor. After discontinuation of study treatment, patients will be followed every 8 weeks (1 week) for response assessments, ECOG performance status, and physical exams. After 1 year of on study, the frequency of follow-up exams including response assessments will be reduced to every 12 weeks (+1 week). Patients that have progressed or begun subsequent anticancer therapy will be contacted every 8 weeks (1 week) up to 1 year on study, and every 12 weeks (+1 week) thereafter to obtain information on subsequent anticancer therapy, and survival status until death, study closure, or withdrawal of consent, whichever occurs first. The study will be closed 5 years after enrollment of the last patient, or when no patients remain in long-term follow-up, whichever occurs first. Additionally, the sponsor may terminate the study at any time.
Measures of anticancer activity will be assessed by computed tomography (CT) scans with contrast approximately every 8 weeks (±1 week). After 1 year on study, response assessments will be reduced to every 12 weeks (±1 week). The schedule of response assessments should not be adjusted for dose delays/interruptions or other reasons for changes in the timing of a patient's study activities; timepoints for response assessments should be calculated from Cycle 1 Day 1 during treatment. For patients who cannot receive CT scans with contrast, other protocol-specified imaging methods may be used. Patients must be evaluated using the same imaging method throughout the study for efficacy assessments. CT scans with contrast at the minimum will include the chest, abdomen, and pelvis. Other regions should be scanned if the patient has known or suspected disease in that region. Responses (complete response (CR) or partial response (PR)) will be confirmed with repeat scans 4 weeks (+1 week window) after first documentation of response. The determination of antitumor activity will be based on confirmed objective response assessments as defined by RECIST Version 1.1.
Response and progression will be assessed by an independent review facility (IRF). The investigator will make treatment decisions based on site assessments of scans by RECIST.
The primary endpoint of this study is the confirmed ORR per IRF. The ORR is defined as the proportion of patients with confirmed CR or PR according to RECIST Version 1.1. The ORR per IRF and its exact 2-sided 95% confidence interval (CI) using the Clopper-Pearson method (Clopper et al., Biometrika (1934); 26(4): 404-413) will be calculated.
The primary efficacy endpoint of this study is ORR (confirmed CR or PR per Response Evaluation Criteria in Solid Tumors (RECIST) Version 1.1) as determined by blinded independent central review (BICR) by an independent review facility (IRF). […]

[3] = Cohort 2 (N = 89), BICR, additional 3 months follow-up
[4] = Cohort 2 (N = 89), BICR, primary analysis
[5] = Cohort 2, BICR, additional 3 months follow-up
[6] = Cohort 2, BICR, primary analysis
[7] = Cohort 2, Kaplan-Meier, additional 3 months follow-up
[8] = Cohort 2, additional 3 months follow-up

## enfortumab vedotin: Nectin-4 directed ADC: fully human anti-nectin-4 IgG1 kappa antibody (AGS-22C3) conjugated to MMAE via protease-cleavable maleimidocaproyl valine-citrulline linker
[1]
  dermatological AEs that required discontinuation of study drug: None
[1]; 1 mg/kg dose group
  events of rash reported as Grade 3: two
[1]; 1.25 mg/kg
  corneal adverse event rate (3/33): 9%
  events of Grade 1 papular rash that required a dose reduction: one
[1]; out of 33 patients on 1.25 mg/kg, data cut-off 14 Nov. 2016
  patients who reported experiencing corneal adverse events: 3
[2]; [3]
  Best Overall Response: Complete Response (CR): 20 (22.5) n (%)
  Best Overall Response: Not Evaluable (NE): 8 (9.0) n (%)
  Best Overall Response: Partial Response (PR): 25 (28.1) n (%)
  Best Overall Response: Progressive Disease (PD): 19 (10.1) n (%)
  ORR (CR or PR): 45 (50.6) n (%)
[2]; [4]
  Best Overall Response: Complete Response (CR): 18 (20.2) n (%)
  Best Overall Response: Not Evaluable (NE): 8 (9.0) n (%)
  Best Overall Response: Partial Response (PR): 28 (31.5) n (%)
  Best Overall Response: Progressive Disease (PD): 8 (9.0) n (%)
  ORR (CR or PR): 46 (51.7) n (%)
[2]; Cohort 2 (N = 89), additional 3 months follow-up
  Number of responders (confirmed CR or PR): 45
[2]; [5]
  95% CI of confirmed ORR: 39.8-61.3%
  CR among treated patients: 22%
  confirmed ORR: 51%
[2]; [6]
  CR (complete response rate): 20.2%
  ORR: 51.7%
  median DOR: 10.9 months
  median PFS: 5.8 months
  participants with reduction in tumor measurements: 88%
  responders with ongoing response (18 out of 46): 39%
[2]; [7]
  % Responders without PD or death (95% CI): 35.8 (14.49, 57.91) %
  % Responders without PD or death at 6 months (95% CI): 67.9 (51.11, 79,95) %
  % Responders without PD or death at 12 months (95% CI): 53.7 (35.51, 68.85) %
  Duration of response, 25th percentile: 5.8, − months
  Duration of response, Median (95% CI): 13.8 (6.41, −) months
[2]; [8]
  ORR point estimates for all subgroups: more than 40%
  95% CI of median PFS: 5.0(8.3) months
  median DOR: 13.8 months
  median PFS: 6.7 months
[2]; Cohort 2, primary analysis
  ORR point estimates for all subgroups: more than 40%
[2]; Cohort 2, additional 3 months follow-up, median follow-up 16.0 months
  median OS: 16.1 months
[2]; Cohort 2, patients who did not respond to prior PD-1/PD-L1 inhibitors, additional 3 months follow-up
  ORR: 46%
[2]; Cohort 2, patients with liver metastasis, additional 3 months follow-up
  ORR: 43%
[2]; Cohort 2, patients with primary tumor sites in the upper tract, additional 3 months follow-up
  ORR: 58%
[2]; Cohort 2, primary analysis, median follow-up 13.4 months
  median OS: 14.7 months
